Laboratory results reported in ChEMBL document CHEMBL2401618 (Eur J Med Chem, 2013).

What was measured:
[1] = Cytotoxicity against african green monkey Vero cells assessed as growth inhibition at 10^-5 M after 72 hrs by MTS assay relative to control; assay type: cell-based; conditions: chlorocebus sabaeus, read-out: GI
[2] = Safety index, ratio of IC50 for african green monkey Vero cells to IC50 for bloodstream stage of Trypanosoma brucei brucei 93; assay type: toxicity, cell-based; conditions: read-out: Ratio IC50
[3] = Safety index, ratio of IC50 for african green monkey Vero cells to IC50 for chloroquine-resistant Plasmodium falciparum FcB1/Columbia infected in human erythrocytes; assay type: toxicity, cell-based; conditions: read-out: Ratio IC50
[4] = Safety index, ratio of IC50 for african green monkey Vero cells to IC50 for promastigote stage of Leishmania donovani LV9; assay type: toxicity, cell-based; conditions: read-out: Ratio IC50
Vero = assay: Cytotoxicity against african green monkey Vero cells assessed as growth inhibition after 72 hrs by MTS assay; assay type: cell-based; conditions: Chlorocebus sabaeus
[5] = system: Trypanosoma brucei brucei; assay: Antitrypanosomal activity against bloodstream stage of Trypanosoma brucei brucei 93 assessed as parasite growth inhibition at 50 ug/ml after 72 hrs by resazurin reduction assay relative to control; assay type: functional; conditions: Trypanosoma brucei, 93, 72 h; read-out: GI
Plasmodium falciparum [6] = assay: Antiplasmodial activity against chloroquine-resistant Plasmodium falciparum FcB1/Columbia infected in human erythrocytes assessed as parasite growth inhibition after 24 hrs by [3H]-hypoxanthine incorporation assay; assay type: functional, organism-based
Plasmodium falciparum [7] = assay: Antiplasmodial activity against chloroquine-resistant Plasmodium falciparum FcB1/Columbia infected in human erythrocytes assessed as parasite growth inhibition at 50 ug/ml after 24 hrs by [3H]-hypoxanthine incorporation assay relative to control; assay type: functional; conditions: read-out: GI
Plasmodium falciparum [8] = assay: Antiplasmodial activity against chloroquine-resistant Plasmodium falciparum FcB1/Columbia infected in human erythrocytes assessed as parasite growth inhibition at 10 ug/ml after 24 hrs by [3H]-hypoxanthine incorporation assay relative to control; assay type: functional; conditions: read-out: GI
[9] = system: Trypanosoma brucei brucei; assay: Antitrypanosomal activity against bloodstream stage of Trypanosoma brucei brucei 93 assessed as parasite growth inhibition at 1 ug/ml after 72 hrs by resazurin reduction assay relative to control; assay type: functional; conditions: Trypanosoma brucei, 93, 72 h; read-out: GI
Leishmania donovani = assay: Leishmanicidal activity against promastigote stage of Leishmania donovani LV9 assessed as cell viability by MTT assay; assay type: functional, organism-based
[10] = system: Trypanosoma brucei brucei; assay: Antitrypanosomal activity against bloodstream stage of Trypanosoma brucei brucei 93 assessed as parasite growth inhibition after 72 hrs by resazurin reduction assay; assay type: functional, organism-based; conditions: Trypanosoma brucei, 93, 72 h
Plasmodium falciparum [11] = assay: Antiplasmodial activity against chloroquine-resistant Plasmodium falciparum FcB1/Columbia infected in human erythrocytes assessed as parasite growth inhibition at 1 ug/ml after 24 hrs by [3H]-hypoxanthine incorporation assay relative to control; assay type: functional; conditions: read-out: GI
[12] = system: Trypanosoma brucei brucei; assay: Antitrypanosomal activity against bloodstream stage of Trypanosoma brucei brucei 93 assessed as parasite growth inhibition at 10 ug/ml after 72 hrs by resazurin reduction assay relative to control; assay type: functional; conditions: Trypanosoma brucei, 93, 72 h; read-out: GI

SMILES	inhibition at 72 h, 10 µM [1]	selectivity ratio [2]	selectivity ratio [3]	selectivity ratio [4]	IC50 (Vero)	inhibition of growth at 50 µg/mL [5]	IC50 (Plasmodium falciparum [6])	inhibition of growth at 50 µg/mL (Plasmodium falciparum [7])	inhibition of growth at 10 µg/mL (Plasmodium falciparum [8])	inhibition of growth at 1 µg/mL [9]	IC50 (Leishmania donovani)	IC50 [10]	inhibition of growth at 1 µg/mL (Plasmodium falciparum [11])	inhibition of growth at 10 µg/mL [12]
CC(C)=CCC[C@]1(C)[C@@H](CC=C(C)C)C[C@]2(CC=C(C)C)C(=O)[C@@]1(CC=C(C)C)C(=O)C(C(=O)c1ccc(OCCC3OCCO3)c(OCCC3OCCO3)c1)=C2O	29%	22.8	20.8	1.2	41.6 µM	95%	2 µM	99.6%	94.1%	44.8%	34.3 µM	1.83 µM	17.6%	96.7%
CC(C)=CCC[C@]1(C)[C@@H](CC=C(C)C)C[C@]2(CC=C(C)C)C(=O)[C@@]1(CC=C(C)C)C(=O)C(C(=O)c1ccc(OC(=O)C(C)(C)C)c(OC(=O)C(C)(C)C)c1)=C2O	13%	11.5		< 1	100 µM	96.4%		0.5%	27.2%	42.9%	> 100 µM	8.66 µM	4.48%	91.2%
COc1ccc(C(=O)C2=C(O)[C@]3(CC=C(C)C)C[C@H](CC=C(C)C)[C@@](C)(CCC=C(C)C)[C@](CC=C(C)C)(C2=O)C3=O)cc1O [14-O-METHYL-GUTTIFERONE A]		8.1	2.6	1.2	11.5 µM	92.8%	4.46 µM	98.9%	75.2%	85.3%	9.4 µM	1.42 µM	10.7%	96.3%
